Columns and labels:
[1] = Stability of the prepared amphiphiles; type: physicochemical; settings: observation after preparation
Description: (§1) For the tris-pyridine system, it was initially attempted to alkylate the commercially available O3Pyr, which led to no reaction under a number of SN2-type reaction conditions, presumably due to steric hindrance next to the nucleophilic pyridine nitrogen. The preparation of the “para” isomer via a precedented reductive amination shown in FIG. 4 (52%) was then carried out (Oh et al., 2007, Korean Chem. Soc, 28: 2193-2194, Abdel-Magid et al., 1996, J. Org. Chem, 61: 3849-3862). […] Attempts to prepare homologs led to variable yields and unacceptable purity. While not wishing to be bound by any particular theory it was hypothesized that this could have resulted from a fragmentation event driven by the central nitrogen, which might be circumvented by a change in the electronic distribution of the QAC. […] These amphiphiles were prepared in 71-97% yields, again after recrystallization or trituration. […]

[2] = tested on: Pseudomonas aeruginosa (PAO1); assay: Minimum inhibitory concentration (MIC), P. aeruginosa; type: cell-based; settings: MH media, 37° C., 72 hours, visual growth
Description: (§2) As used herein, the term “minimum inhibitory concentration (MIC)” refers to the lowest concentration of an antimicrobial agent that will inhibit the visible growth of a microorganism after overnight incubation. MIC values against bacteria, for example, the Gram-positive Staphylococcus aureus and Enterococcus faecalis and the Gram-negative Escherichia coli and Pseudomonas aeruginosa were determined by standard methods. See also P. A. Wayne, Methods for Dilution Antimicrobial Tests for Bacteria that Grow Aerobically; Approved Standard, Ninth Edition, 2012, CLSI Document M07-A9, Vol. 32 No. 2, which is incorporated by reference herein in its entirety.
(§3) For all biological assays, laboratory strains of methicillin-susceptible Staphylococcus aureus MSSA (SH1000), Enterococcus faecalis (OG1RF), Escherichia coli (MC4100), Pseudomonas aeruginosa (PAO1), community-acquired methicillin-resistant Staphylococcus aureus CA-MRSA (USA300-0114), and hospital-acquired methicillin-resistant Staphylococcus aureus HA-MRSA (ATCC 33591) were grown with shaking at 37° C. overnight from freezer stocks in 10 mL of the indicated media.
(§4) Compounds were serially diluted two-fold from stock solutions to yield twelve test concentrations. Overnight S. aureus, E. faecalis, E. coli, P. aeruginosa, USA300-0114 (CA-MRSA), and ATCC 33591 (HA-MRSA) cultures diluted to ca. 10^6 cfu/mL in MH media and 100 μL were inoculated into each well of a U-bottom 96-well plate (BD Biosciences, BD 351177) containing 100 μL of compound solution. Plates were incubated statically at 37° C. for 72 hours upon which time wells were evaluated visually for bacterial growth. The MIC was determined as the lowest concentration of compound resulting in no bacterial growth visible to the naked eye, based on the majority of three independent experiments. Aqueous DMSO controls were conducted as appropriate for each compound.

[3] = tested on: Enterococcus faecalis (OG1RF); assay: Minimum inhibitory concentration (MIC), E. faecalis; type: cell-based; settings: MH media, 37° C., 72 hours, visual growth
Description: as §2, §3, §4

[4] = tested on: Escherichia coli (MC4100); assay: Minimum inhibitory concentration (MIC), E. coli; type: cell-based; settings: MH media, 37° C., 72 hours, visual growth
Description: as §2, §3, §4

[5] = tested on: red blood cells (mechanically defibrinated sheep blood); assay: Red blood cell (RBC) lysis assay (Lysis20); type: cell-based; settings: sheep RBCs in PBS, 37° C., 1 hour, absorbance 540 nm; Table 1
Text: These assessments followed standard protocols (Minbiole et al., 2016, Tetrahedron, 72: 3559-3566, Forman et al., 2016, ChemMedChem, 11: 1401-1405, Forman et al., 2016, ChemMedChem, 11: 958-962, Mitchell et al., 2015, ChemBioChem, 16: 2299-2303, Jennings et al., 2015, ACS Inf. Dis, 1: 304-308, Paniak et al., 2014, Bioorg. Med. Chem. Lett, 24: 5824-5828, Ator et al., 2014, Bioorg. Med. Chem. Lett, 24: 3706-3709, Jennings et al., 2014, ChemBioChem, 15: 2211-2215, Black et al., 2014, Bioorg. Med. Chem. Lett, 24, 99-102, Grenier et al., 2012, Bioorg. Med. Chem. Lett, 22: 4055-4058).
RBC lysis assays were performed on mechanically defibrinated sheep blood (Hemostat Labs: DSB030). 1.5 mL of blood was placed into a microcentrifuge tube and centrifuged at 10,000 rpm for ten minutes. The supernatant was removed and the cells were resuspended with 1 mL of phosphate-buffered saline (PBS). The suspension was centrifuged as previously, the supernatant was removed, and cells were resuspended two more times. The final cell suspension was diluted twentyfold with PBS. The twentyfold suspension dilution was then aliquoted into microcentrifuge tubes containing compound serially diluted in PBS. TritonX (1% by volume) served as a positive control (100% lysis marker) and sterile PBS served as a negative control (0% lysis marker). Samples were then placed in an incubator at 37° C. and shaken at 200 rpm. After 1 hour, the samples were centrifuged at 10,000 rpm for ten minutes. The absorbance of the supernatant was measured with a UV spectrometer at a 540 nm wavelength.

[6] = tested on: hospital-acquired methicillin-resistant Staphylococcus aureus HA-MRSA (ATCC 33591); assay: microbe, parasite or virus in culture; type: cell-based; settings: Staphylococcus aureus, 72 h, read-out: MIC, HA-MRSA
Description: as §2, §3, §4

[7] = tested on: community-acquired methicillin-resistant Staphylococcus aureus CA-MRSA (USA300-0114); assay: Minimum inhibitory concentration (MIC), CA-MRSA; type: cell-based; settings: MH media, 37° C., 72 hours, visual growth
Description: as §2, §3, §4

[8] = tested on: methicillin-susceptible Staphylococcus aureus MSSA (SH1000); assay: Minimum inhibitory concentration (MIC), S. aureus; type: cell-based; settings: MH media, 37° C., 72 hours, visual growth
Description: as §2, §3, §4

[9] = tested on: six bacteria (SA, EF, EC, PA, CA-MRSA, HA-MRSA); assay: Antimicrobial activity (MIC) over the panel of six bacteria; type: cell-based
Description: as §1
Compounds were serially diluted two-fold from stock solutions to yield twelve test concentrations. […] Plates were incubated statically at 37° C. for 72 hours upon which time wells were evaluated visually for bacterial growth. The MIC was determined as the lowest concentration of compound resulting in no bacterial growth visible to the naked eye, based on the majority of three independent experiments. […]

Row | Structure (SMILES) | stability [1] | MIC [2] [µM] | MIC [3] [µM] | MIC [4] [µM] | Lysis20 (highest concentration at which <20% of RBCs are lysed) [5] [μm] | MIC [6] [µM] | MIC [7] [µM] | MIC [8] [µM] | antimicrobial activity / bioactivity in words [9]
1 | CCCCCCCCCC[n+]1ccc(CN(Cc2cc[n+](CCCCCCCCCC)cc2)Cc2cc[n+](CCCCCCCCCC)cc2)cc1 [P3Pyr-10,10,10] | poor stability | 2 | 1 | 1 | 4 | 0.5 | 0.5 | 0.5 | –
2 | CCCCCCCCCCC[n+]1ccc(CCCc2cc[n+](CCCCCCCCCCC)cc2)cc1 [2Pyr-11,11] | – | 2 | 0.25 | 0.5 | 8 | 0.5 | 0.25 | 0.5 | nanomolar inhibition against 5 of 6 bacteria tested
3 | CCCCCCCCCCCC[n+]1ccc(CN(Cc2cc[n+](CCCCCCCCCCCC)cc2)Cc2cc[n+](CCCCCCCCCCCC)cc2)cc1 [P3Pyr-12,12,12] | poor stability | 8 | 2 | 2 | 8 | 2 | 1 | 2 | –

Reference: patent publication US12459898B2, “Polycationic amphiphiles as antimicrobial agents and methods using same” (Temple University-Of The Commonwealth System of Higher …, priority 2016, dated 2025)
